According to EP2888233B1, “SUBSTITUTED 6-AMINO-NICOTINAMIDES BEARING AN OH-CONTAINING GROUP AS KCNQ2/3 MODULATORS” (Grünenthal GmbH, priority 2012, dated 2013):

Legend:
KCNQ2/3 channels = target: T1, KCNQ2/3 channels (Homo sapiens, UniProt O43525+O43526); assay: Fluorescence assay using a voltage sensitive dye (fluorimetry); assay type: cell-based; conditions: for Emax: CHO-K1, CHO-K1 cells expressing KCNQ2/3 channels, read-out: Fluorimetry % efficacy (retigabine = 100%); for Emax / Fluorimetry % efficacy (retigabine = 100%): plateau effect relative to saturated Retigabine (50 µM) = 100%; for EC50 / Fluorimetry % efficacy (retigabine = 100%): CHO-K1 cells expressing KCNQ2/3 channels; for EC50: voltage-sensitive dye, KCl depolarization, read-out: Fluorimetry EC50 / IC50
T1 construct: expressed in transfected cells
Excerpt: Method I. Fluorescence assay using a voltage sensitive dye (fluorimetry)
The modulation of the KCNQ opening state (and consequently the voltage potential of a cell) by test compounds such as compounds according to the present invention results in an increased or reduced amount of a voltage-sensitive dye in the cytoplasm of the cells tested. These voltage-sensitive dyes are fluorescent dyes and, therefore, are forming the link between cell potential influenced by KCNQ modulation and fluorescence intensity. A KCNQ agonist leads to an opening of the channel, potassium and dye efflux, a following hyperpolarization and a reduction of the inner fluorescence intensity in a kinetic protocol. If applying an ion jump by KCl depolarization, KCNQ agonists increase the ΔF/F value. An antagonist performs vice versa, respectively.
The 'fluorimetry EC50' is the half maximum effective concentration (EC50), where the concentration of a drug/compound induces a response halfway between the baseline and maximum plateau effect. In other words, said value represents the concentration of a compound, where 50% of its maximal effect in the fluorimetric assay is observed if the substance concentration is graphed against the corresponding ΔF/F values (for which the calculation method is described below). Therefore, 'fluorimetry EC50' is a measure for the compound potency. The compound efficacy is mirrored by 'fluorimetry % efficacy' ('%Efficacy') and refers to the maximum response achievable by the test compound, i.e. the plateau effect. This drug's plateau effect is related to the plateau effect, which can be achieved by applying a saturated concentration of a reference compound, e.g. Retigabine (50 µM), in independent wells of the same experimental plate or series. A compound showing 100% efficacy is as efficacious as the reference compound (Retigabine) with a saturated concentration.
[…] CHO-K1 cells expressing KCNQ2/3 channels are cultivated adherently at 37°C, 5% CO2 and 95% humidity in cell culture bottles (e.g. 80 cm^2 TC flasks, Nunc) with DMEM-high glucose (Sigma Aldrich, D7777) including 10% FCS (PAN Biotech, e.g. 3302-P270521) or alternatively MEM Alpha Medium (1x, liquid, Invitrogen, #22571), 10% fetal calf serum (FCS) (Invitrogen, #10270-106, heat-inactivated) and the necessary selection antibiotics.
Before being sown out for the measurements, the cells are washed with 1 x DPBS buffer Ca^2+/Mg^2+-free (e.g. Invitrogen, #14190-094) and detached from the bottom of the culture vessel by using Accutase (PAA Laboratories, #L11-007) (incubation with Accutase for 15 min at 37°C). The cell number is determined using a CASY™ cell counter (TCC, Schärfe System). Depending on the optimal density for each individual cell line, 20,000-30,000 cells/well/100 µl are seeded onto 96-well Corning™ CellBIND™ assay plates (Flat Clear Bottom Black Polystyrene Microplates, #3340). Freshly seeded cells are then left to settle for one hour at room temperature, followed by incubation for 24 hours at 37°C, 5% CO2 and 95% humidity.
The voltage-sensitive fluorescent dye from the Membrane Potential Assay Kit (Red™ Bulk format part R8123 for FLIPR, MDS Analytical Technologies™) is prepared by dissolving the contents of one vessel Membrane Potential Assay Kit Red Component A in 200 ml of extracellular buffer (ES buffer, 120 mM NaCl, 1 mM KCI, 10 mM HEPES, 2 mM CaCl2, 2 mM MgCl2, 10 mM glucose; pH 7.4). After removal of the nutrient medium, the cells are washed once with 200 µl of ES buffer, then loaded for 45 min at room temperature in 100 µl of dye solution in the dark.
Fluorescence measurements are carried out in a BMG Labtech FLUOstar™, BMG Labtech NOVOstar™ or BMG Labtech POLARstar™ instrument (525 nm excitation, 560 nm emission, Bottom Read mode). […]

[1] = test system: withdrawal reflex of the rat tail (tail flick); assay: Low-intensity tail flick test (rat); assay type: in vivo, Male Sprague-Dawley rats; conditions: MPE [%] at dose 10 mg/kg, dose printed in brackets in the cell
Description: Method II. Low-intensity tail flick test (rat)
In the low-intensity tail flick test, the determination of the antinociceptive effect of the compounds according to the invention towards an acute noxious thermal stimulus is carried out by measuring the withdrawal reflex of the rat tail (tail flick) in response to a radiant heat beam (analgesia meter; model 2011 of the company Rhema Labortechnik, Hofheim, Germany) according to the method described by D'Amour and Smith (J. Pharm. Exp. Ther. 72, 74 79 (1941). To this end, the rats were placed in a plexiglas restrainer, and a low-intensity radiant heat beam (48°C) was focused onto the dorsal surface of the tail root. […] Before administration of a compound according to the invention, the animals were pre-tested twice in the course of five minutes and the mean of these measurements was calculated as the pre-test mean. The antinociceptive effect was determined at 20, 40 and 60 min after peroral compound administration. The antinociceptive effect was calculated based on the increase in the tail withdrawal latency according to the following formula and is expressed as percentage of the maximum possible effect (MPE [%]): MPE = [(T1−T0)/(T2−T0)]*100 [formula] […]

Compound	Emax (KCNQ2/3 channels) [%]	EC50 (KCNQ2/3 channels) [nM]	Fluorimetry % efficacy (retigabine = 100%) (KCNQ2/3 channels) [%]	Low intensity tail flick, rat, peroral, ED50 or MPE (dose) [1]
Cc1cc(N2CCOCC2)nc(C2CC2)c1C(=O)NCCC(O)C(C)(C)C (single isomer, unassigned) [Example 1a, 2-cyclopropyl-N-(3-hydroxy-4,4-dimethyl-pentyl)-4-methyl-6-morpholin-4-yl-pyridine-3-carboxylic acid amide]	242	961	–	–
Cc1cc(N2CCOCC2)nc(C2CC2)c1C(=O)NCCC(O)C(C)(C)C (single isomer, unassigned) [Example 1b, 2-cyclopropyl-N-(3-hydroxy-4,4-dimethyl-pentyl)-4-methyl-6-morpholin-4-yl-pyridine-3-carboxylic acid amide]	–	318	224	100 (10) %
Cc1cc(N2CCOCC2)nc(C(C)C)c1C(=O)NCCC(O)C(C)(C)C (single isomer, unassigned) [Example 5a, N-(3-hydroxy-4,4-dimethyl-pentyl)-2-isopropyl-4-methyl-6-morpholin-4-yl-pyridine-3-carboxylic acid amide]	239	431	–	–
Cc1cc(N2CCOCC2)nc(C(C)C)c1C(=O)NCCC(O)C(C)(C)C (single isomer, unassigned) [Example 5b, N-(3-hydroxy-4,4-dimethyl-pentyl)-2-isopropyl-4-methyl-6-morpholin-4-yl-pyridine-3-carboxylic acid amide]	–	94	239	–
Cc1cc(N2CCOCC2)nc(C(C)C)c1C(=O)NCCC(O)C(F)(F)F (single isomer, unassigned) [Example 6a, 2-Isopropyl-4-methyl-6-morpholin-4-yl-N-(4,4,4-trifluoro-3-hydroxy-butyl)-pyridine-3-carboxylic acid amide]	–	1090	206	–
Cc1cc(N2CCOCC2)nc(C(C)C)c1C(=O)NCCC(O)C(F)(F)F (single isomer, unassigned) [Example 6b, 2-Isopropyl-4-methyl-6-morpholin-4-yl-N-(4,4,4-trifluoro-3-hydroxy-butyl)-pyridine-3-carboxylic acid amide]	–	3920	149	–
Cc1cc(N2CCOCC2)nc(C2CC2)c1C(=O)NCCC(O)C(C)(C)C (stereo not shown) [Example 1, 2-Cyclopropyl-N-(3-hydroxy-4,4-dimethyl-pentyl)-4-methyl-6-morpholin-4-yl-pyridine-3-carboxylic acid amide]	237	529	–	–
Cc1cc(N2CCOCC2)nc(C2CC2)c1C(=O)NC[C@@H]1CCCC[C@H]1O [Example 2, 2-Cyclopropyl-N-[[(1S,2R)-2-hydroxy-cyclohexyl]-methyl]-4-methyl-6-morpholin-4-yl-pyridine-3-carboxylic acid amide]	245	483	–	67 (10) %
Cc1cc(N2CCOCC2)nc(C2CC2)c1C(=O)NC[C@H]1CCCC[C@@H]1O [Example 3, 2-Cyclopropyl-N-[[(1R,2S)-2-hydroxy-cyclohexyl]-methyl]-4-methyl-6-morpholin-4-yl-pyridine-3-carboxylic acid amide]	99	8550	–	–
Cc1cc(N2CCOCC2)nc(C(C)C)c1C(=O)NCCC(O)C(C)(C)C (stereo not shown) [Example 5, N-(3-Hydroxy-4,4-dimethyl-pentyl)-2-isopropyl-4-methyl-6-morpholin-4-yl-pyridine-3-carboxylic acid amide]	230	156	–	–
Cc1cc(N2CCOCC2)nc(C(C)C)c1C(=O)NCCC(O)C(F)(F)F (stereo not shown) [Example 6, 2-Isopropyl-4-methyl-6-morpholin-4-yl-N-(4,4,4-trifluoro-3-hydroxy-butyl)-pyridine-3-carboxylic acid amide]	150	1990	–	–
Cc1cc(N2CCOCC2)nc(C(C)C)c1C(=O)NC[C@@H]1CCCC[C@H]1O [Example 7, N-[[(1S,2R)-2-Hydroxy-cyclohexyl]-methyl]-2-isopropyl-4-methyl-6-morpholin-4-yl-pyridine-3-carboxylic acid amide]	243	185	–	–
CCOc1nc(N2CCOCC2)cc(C)c1C(=O)NCCC(O)C(C)(C)C (stereo not shown) [Example 8, 2-Ethoxy-N-(3-hydroxy-4,4-dimethyl-pentyl)-4-methyl-6-morpholin-4-yl-pyridine-3-carboxylic acid amide]	231	252	–	–
